Laboratory results published in PubChem BioAssay AID180 (DTP/NCI, 2004).
Values joined by “and” are separate entries in the source; they are usually repeats but may differ in a detail not shown here. Identical values can stand only once.

Test system: BDF1 mice, Adenocarcinoma 755 s.c., tumor weight T/C
Assay: NCI In Vivo Anticancer Drug Screen. Data for tumor model Adenocarcinoma 755 (subcutaneous) in B6D2F1 (BDF1) mice
Details: endpoint: mean tumor weight, higher = larger tumour
How it was run: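 Transplantable tumor implanted; mice dosed with compound or vehicle; survival or tumor size recorded; ratio of treated to vehicle control reported.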

[1] = dose: 30.0 mg/kg/injection, schedule: Q01DX011 (ip), vehicle: carboxymethylcellulose (CMC)

SMILES: O=c1[nH]c(=O)n(C2CC(O)C(CO)O2)cc1F (configuration not stated)
- T/C (dose: 13.12 mg/kg/injection, schedule: Q01DX011 (ip), vehicle: carboxymethylcellulose (CMC)): 124 % of control
- T/C (dose: 15.0 mg/kg/injection, schedule: Q01DX011 (ip), vehicle: carboxymethylcellulose (CMC)): 72 % of control
- T/C (dose: 19.0 mg/kg/injection, schedule: Q01DX011 (ip), vehicle: other): 66 % of control
- T/C (dose: 25.0 mg/kg/injection, schedule: Q01DX011 (ip), vehicle: methylcellulose (MC)): 54 % of control
- T/C (dose: 26.25 mg/kg/injection, schedule: Q01DX011 (ip), vehicle: carboxymethylcellulose (CMC)): 68 % of control
- T/C (dose: 30.0 mg/kg/injection, schedule: Q01DX006 (ip), vehicle: other): 80 % of control
- T/C [1]: 37 % of control
- T/C (dose: 37.5 mg/kg/injection, schedule: Q01DX011 (ip), vehicle: other): 28 % of control
- T/C (dose: 50.0 mg/kg/injection, schedule: Q01DX011 (ip), vehicle: methylcellulose (MC)): 25 % of control
- T/C (dose: 52.5 mg/kg/injection, schedule: Q01DX011 (ip), vehicle: carboxymethylcellulose (CMC)): 59 % of control
- T/C (dose: 60.0 mg/kg/injection, schedule: Q01DX006 (ip), vehicle: other): 37 % of control
- T/C (dose: 60.0 mg/kg/injection, schedule: Q01DX011 (ip), vehicle: carboxymethylcellulose (CMC)): 14 % of control
- T/C (dose: 75.0 mg/kg/injection, schedule: Q01DX011 (ip), vehicle: other): 3 % of control
- T/C (dose: 100.0 mg/kg/injection, schedule: Q01DX011 (ip), vehicle: methylcellulose (MC)): 6 % of control
- T/C (dose: 105.0 mg/kg/injection, schedule: Q01DX011 (ip), vehicle: carboxymethylcellulose (CMC)): 54 % of control
- T/C (dose: 120.0 mg/kg/injection, schedule: Q01DX006 (ip), vehicle: other): 29 % of control
- T/C (dose: 121.0 mg/kg/injection, schedule: Q01DX011 (ip), vehicle: carboxymethylcellulose (CMC)): 3 % of control
- T/C (dose: 240.0 mg/kg/injection, schedule: Q01DX006 (ip), vehicle: other): 6 % of control
- T/C (dose: 480.0 mg/kg/injection, schedule: Q01DX006 (ip), vehicle: other): 2 % of control

SMILES: COC(=O)C1(N)CCCC1
- T/C (dose: 12.5 mg/kg/injection, schedule: Q01DX011 (ip), vehicle: carboxymethylcellulose (CMC)): 63 % of control
- T/C (dose: 25.0 mg/kg/injection, schedule: Q01DX011 (ip), vehicle: carboxymethylcellulose (CMC)): 35 % of control
- T/C (dose: 50.0 mg/kg/injection, schedule: Q01DX011 (ip), vehicle: carboxymethylcellulose (CMC)): 11 % of control
- T/C (dose: 100.0 mg/kg/injection, schedule: Q01DX011 (ip), vehicle: carboxymethylcellulose (CMC)): 5 % of control

SMILES: Cc1nc(Cl)c(C#N)c(C(F)(F)F)c1[N+](=O)[O-]
- T/C [1]: 59 % of control

SMILES: NC(CCCC(N)C(=O)O)C(=O)O (configuration not stated)
- T/C (dose: 200.0 mg/kg/injection, schedule: Q01DX011 (ip), vehicle: other): 75 % of control
- T/C (dose: 400.0 mg/kg/injection, schedule: Q01DX011 (ip), vehicle: other): 77 % of control
- T/C (dose: 600.0 mg/kg/injection, schedule: Q01DX011 (ip), vehicle: other): 93 % of control

SMILES: CC(=O)OCC(=O)[C@@]1(O)CC[C@H]2[C@@H]3CCC4=CC(=O)C=C[C@]4(C)[C@H]3C(=O)C[C@@]21C
- T/C (dose: 0.9 mg/kg/injection, schedule: Q01DX011 (sc), vehicle: steriod suspending solution): 68 % of control
- T/C (dose: 1.7 mg/kg/injection, schedule: Q01DX011 (sc), vehicle: steriod suspending solution): 72 % of control
- T/C (dose: 3.5 mg/kg/injection, schedule: Q01DX011 (sc), vehicle: steriod suspending solution): 76 % of control
- T/C (dose: 3.7 mg/kg/injection, schedule: Q01DX011 (sc), vehicle: steriod suspending solution): 64 % of control
- T/C (dose: 7.0 mg/kg/injection, schedule: Q01DX011 (sc), vehicle: steriod suspending solution): 106 % of control
- T/C (dose: 7.1 mg/kg/injection, schedule: Q01DX011 (sc), vehicle: steriod suspending solution): 39 % of control
- T/C (dose: 7.5 mg/kg/injection, schedule: Q01DX011 (sc), vehicle: steriod suspending solution): 50 % of control
- T/C (dose: 14.0 mg/kg/injection, schedule: Q01DX011 (sc), vehicle: steriod suspending solution): 52 % of control
- T/C (dose: 14.3 mg/kg/injection, schedule: Q01DX011 (sc), vehicle: steriod suspending solution): 44 % of control
- T/C (dose: 15.0 mg/kg/injection, schedule: Q01DX011 (sc), vehicle: steriod suspending solution): 27 % of control and 33 % of control
- T/C (dose: 28.7 mg/kg/injection, schedule: Q01DX011 (sc), vehicle: steriod suspending solution): 19 % of control and 26 % of control and 27 % of control
- T/C (dose: 30.0 mg/kg/injection, schedule: Q01DX011 (sc), vehicle: steriod suspending solution): 13 % of control and 16 % of control
- T/C (dose: 57.5 mg/kg/injection, schedule: Q01DX011 (sc), vehicle: steriod suspending solution): 3 % of control and 11 % of control and 17 % of control
- T/C (dose: 60.0 mg/kg/injection, schedule: Q01DX011 (sc), vehicle: steriod suspending solution): 12 % of control
- T/C (dose: 115.0 mg/kg/injection, schedule: Q01DX011 (sc), vehicle: steriod suspending solution): 5 % of control
